# How the values were obtained:
# Assay type in all cases: in vivo
# [1] = tested on: Echinochloa crus-galli var. crus-galli; test: Test Example 3: herbicidal effect by application to foliage (Wagner pot, water depth 0.1-0.5 cm); conditions: Nineteenth Table; application to foliage; application herbicide amount 320 g/ha
# How it was run: (§1)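 Visual 0–5 rating of herbicidal ratio, taken 3 weeks after foliar spray of a diluted emulsion formulation at rates expressed as g/ha. Plants had been sown in alluvial soil under 0.1–0.5 cm water and grown 14 days at 25–30 °C under glass before application.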
# [2] = tested on: Leptochloa chinensis; test: as above; conditions: Nineteenth Table; application to foliage; application herbicide amount 320 g/ha
# How it was run: as §1
# [3] = tested on: Cyperus difformis; test: as above; conditions: Nineteenth Table; application to foliage; application herbicide amount 320 g/ha
# How it was run: as §1
# [4] = tested on: Amaranthus retroflexus; test: Test Example 4: herbicidal effect by application to foliage (diluvial soil, plastic box)
# Description: (§2) 5 Herbicidal ratio of 90% or more (almost completely withered) 4 Herbicidal ratio of 70% or more and less than 90% 3 Herbicidal ratio of 40% or more and less than 70% 2 Herbicidal ratio of 20% or more and less than 40% 1 Herbicidal ratio of 5% or more and less than 20% 0 Herbicidal ratio of 5% or less (almost no effect) [Test Example 4] Herbicidal Effect Test by Application to Foliage Sterilized diluvial soil was placed in a plastic box having a length of 21 cm, a width of 13 cm, and a depth of 7 cm. Each of the seeds of Digitaria ciliaris, Setaria viridis, Echinochloa crus-galli var. crus-galli, Avena fatua, Alopecurus myosuroides, Lolium multiflorum Lam., Apera spica-venti., Abutilon theophrasti, Amaranthus retroflexus, Chenopodium album, Stellaria media, Galium spurium, Veronica persica, Zea mays, Glycine max, Oryza sativa, Triticum aestivum, Beta vulgaris ssp. vulgaris, and Brassica campestris L. was sowed in a spot-like manner and was covered with the soil of about 1.5 cm thick. Thereafter, the plants were grown in the greenhouse of 25° C. to 30° C. After the plants were grown for 14 days, the emulsion agent containing the compound of the present invention prepared in accordance with Formulation Example 2 was diluted with water so as to be a predetermined herbicide amount and the diluted compound was uniformly applied to a stem and leaf part with a small-size spray. Three weeks after the herbicide application, effects on each plant were investigated in accordance with the criteria of Test Example 1. A: Echinochloa oryzicola Vasing., B: Scirpus juncoides, C: Monochoria vaginalis, D: Leptochloa chinensis, E: Cyperus difformis, F: Digitaria ciliaris, G: Setaria viridis, H: Echinochloa crus-galli var. crus-galli, I: Avena fatua, J: Alopecurus myosuroides, K: Lolium multiflorum Lam., L: Apera spica-venti., M: Abutilon theophrasti, N: Amaranthus retroflexus, O: Chenopodium album, P: Stellaria media, Q: Galium spurium, R: Veronica persica, a: transplanted Oryza sativa, b: directly sowed Oryza sativa, c: Zea mays, d: Glycine max, e: Triticum aestivum, f: Beta vulgaris ssp. vulgaris, and g: Brassica campestris L. The application herbicide amount (g/ha) means an amount that a concentration is adjusted so that, when an application amount is converted into per hectare (1 ha), the herbicide is applied by the number of grams (g) of the described value.
# [5] = tested on: Stellaria media; test: as above
# Description: as §2
# [6] = tested on: Apera spica-venti.; test: as above
# Description: as §2
# [7] = tested on: Setaria viridis; test: as above
# Description: as §2
# [8] = tested on: Veronica persica; test: as above
# Description: as §2
# [9] = tested on: Echinochloa crus-galli var. crus-galli; test: as above
# Description: as §2
# [10] = tested on: Digitaria ciliaris; test: as above
# Description: as §2
# [11] = tested on: Abutilon theophrasti; test: as above
# Description: as §2
# [12] = tested on: Chenopodium album; test: as above
# Description: as §2
# [13] = tested on: Alopecurus myosuroides; test: as above
# Description: as §2
# [14] = tested on: Galium spurium; test: as above
# Description: as §2
# [15] = tested on: Lolium multiflorum Lam.; test: as above
# Description: as §2
# [16] = tested on: Avena fatua; test: as above
# Description: as §2
# [17] = tested on: Zea mays; test: Test Example 4: effect on crop by application to foliage (diluvial soil, plastic box)
# How it was run: (§3)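 Scores run from 0 (herbicidal ratio ≤5%) to 5 (≥90%, almost fully withered) and were assessed three weeks after foliar spraying. Seedlings had been raised for 14 days at 25-30° C in sterilized diluvial soil before treatment, with the emulsion diluted in water to the stated g/ha dose.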
# [18] = tested on: Glycine max; test: as above
# How it was run: as §3
# [19] = tested on: Beta vulgaris ssp. vulgaris; test: as above
# How it was run: as §3
# [20] = tested on: Triticum aestivum; test: as above
# How it was run: as §3
# [21] = tested on: Brassica campestris L.; test: as above
# How it was run: as §3
# [22] = tested on: directly sowed Oryza sativa; test: Test Example 3: effect on crop by application to foliage (Wagner pot, water depth 0.1-0.5 cm); conditions: Nineteenth Table; application to foliage; application herbicide amount 320 g/ha
# How it was run: as §1
# [23] = tested on: directly sowed Oryza sativa; test: Test Example 4: effect on crop by application to foliage (diluvial soil, plastic box); conditions: application to foliage, 320 g/ha
# How it was run: as §3
# [24] = Application herbicide amount 320 g/ha, foliage application
# [25] = application to foliage, 320 g/ha
structure (smiles),measurement,setting,value
COC(=O)CSc1nnc2c(C(=O)Nc3nnc(C)o3)ccc(C(F)(F)F)n12 [1-127],H (herbicidal effect grade),[1],4 (Herbicidal ratio of 70% or more and less than 90%)
same,D (herbicidal effect grade),[2],4 (Herbicidal ratio of 70% or more and less than 90%)
same,E (herbicidal effect grade),[3],3 (Herbicidal ratio of 40% or more and less than 70%)
same,N (Amaranthus retroflexus) herbicidal effect grade,[4]; [24],1 (Herbicidal ratio of 5% or more and less than 20%)
same,P (Stellaria media) herbicidal effect grade,[5]; [24],3 (Herbicidal ratio of 40% or more and less than 70%)
same,L (Apera spica-venti.) herbicidal effect grade,[6]; [24],0 (Herbicidal ratio of 5% or less (almost no effect))
same,G (Setaria viridis) herbicidal effect grade,[7]; [24],1 (Herbicidal ratio of 5% or more and less than 20%)
same,R (Veronica persica) herbicidal effect grade,[8]; [24],1 (Herbicidal ratio of 5% or more and less than 20%)
same,H (Echinochloa crus-galli var. crus-galli) herbicidal effect grade,[9]; [24],4 (Herbicidal ratio of 70% or more and less than 90%)
same,F (Digitaria ciliaris) herbicidal effect grade,[10]; [24],1 (Herbicidal ratio of 5% or more and less than 20%)
same,M (Abutilon theophrasti) herbicidal effect grade,[11]; [24],2 (Herbicidal ratio of 20% or more and less than 40%)
same,O (Chenopodium album) herbicidal effect grade,[12]; [24],5 (Herbicidal ratio of 90% or more (almost completely withered))
same,J (Alopecurus myosuroides) herbicidal effect grade,[13]; [24],0 (Herbicidal ratio of 5% or less (almost no effect))
same,Q (Galium spurium) herbicidal effect grade,[14]; [24],0 (Herbicidal ratio of 5% or less (almost no effect))
same,K (Lolium multiflorum Lam.) herbicidal effect grade,[15]; [24],0 (Herbicidal ratio of 5% or less (almost no effect))
same,I (Avena fatua) herbicidal effect grade,[16]; [24],0 (Herbicidal ratio of 5% or less (almost no effect))
same,c (Zea mays) effect on crop grade,[17]; [24],0 (Herbicidal ratio of 5% or less (almost no effect))
same,d (Glycine max) effect on crop grade,[18]; [24],1 (Herbicidal ratio of 5% or more and less than 20%)
same,f (Beta vulgaris ssp. vulgaris) effect on crop grade,[19]; [24],2 (Herbicidal ratio of 20% or more and less than 40%)
same,e (Triticum aestivum) effect on crop grade,[20]; [24],0 (Herbicidal ratio of 5% or less (almost no effect))
same,g (Brassica campestris L.) effect on crop grade,[21]; [24],0 (Herbicidal ratio of 5% or less (almost no effect))
same,b (effect on crop grade),[22],0 (Herbicidal ratio of 5% or less (almost no effect))
Cc1nonc1NC(=O)c1ccc(C(F)(F)F)n2c(SCC(C)C)nnc12 [3-002],H (herbicidal effect grade),[1],0 (Herbicidal ratio of 5% or less (almost no effect))
same,D (herbicidal effect grade),[2],3 (Herbicidal ratio of 40% or more and less than 70%)
same,"herbicidal effect, N (Amaranthus retroflexus)",[4]; [25],3 (Herbicidal ratio of 40% or more and less than 70%)
same,"herbicidal effect, P (Stellaria media)",[5]; [25],1 (Herbicidal ratio of 5% or more and less than 20%)
same,"herbicidal effect, L (Apera spica-venti.)",[6]; [25],0 (Herbicidal ratio of 5% or less (almost no effect))
same,"herbicidal effect, G (Setaria viridis)",[7]; [25],0 (Herbicidal ratio of 5% or less (almost no effect))
same,"herbicidal effect, R (Veronica persica)",[8]; [25],0 (Herbicidal ratio of 5% or less (almost no effect))
same,"herbicidal effect, H (Echinochloa crus-galli var. crus-galli)",[9]; [25],0 (Herbicidal ratio of 5% or less (almost no effect))
same,"herbicidal effect, F (Digitaria ciliaris)",[10]; [25],0 (Herbicidal ratio of 5% or less (almost no effect))
same,"herbicidal effect, M (Abutilon theophrasti)",[11]; [25],1 (Herbicidal ratio of 5% or more and less than 20%)
same,"herbicidal effect, O (Chenopodium album)",[12]; [25],4 (Herbicidal ratio of 70% or more and less than 90%)
same,"herbicidal effect, J (Alopecurus myosuroides)",[13]; [25],0 (Herbicidal ratio of 5% or less (almost no effect))
same,"herbicidal effect, Q (Galium spurium)",[14]; [25],0 (Herbicidal ratio of 5% or less (almost no effect))
same,"herbicidal effect, K (Lolium multiflorum Lam.)",[15]; [25],0 (Herbicidal ratio of 5% or less (almost no effect))
same,"herbicidal effect, I (Avena fatua)",[16]; [25],0 (Herbicidal ratio of 5% or less (almost no effect))
same,"effect on crop, b (Zea mays)",[17]; [25],0 (Herbicidal ratio of 5% or less (almost no effect))
same,"effect on crop, d (directly sowed Oryza sativa)",[23],0 (Herbicidal ratio of 5% or less (almost no effect))
same,"effect on crop, c (Glycine max)",[18]; [25],0 (Herbicidal ratio of 5% or less (almost no effect))
same,"effect on crop, f (Beta vulgaris ssp. vulgaris)",[19]; [25],0 (Herbicidal ratio of 5% or less (almost no effect))
same,"effect on crop, e (Triticum aestivum)",[20]; [25],0 (Herbicidal ratio of 5% or less (almost no effect))
same,"effect on crop, g (Brassica campestris L.)",[21]; [25],0 (Herbicidal ratio of 5% or less (almost no effect))
same,b (effect on crop grade),[22],0 (Herbicidal ratio of 5% or less (almost no effect))
